Experimental data taken from patent US20210113501A1, “METHOD OF ADMINISTERING BETA-HYDROXY-BETA-METHYLBUTYRATE (HMB)” (Metabolic Technologies, Inc., priority 2009, published 2021).
Marks after values point to notes of the source that are not given here.

Assay: Study 1 hematology (complete blood count)
Assay type: in vivo, human
Conditions: for Basophils (absolute) % Change / Basophils, % - % Change / Eosinophils (absolute) % Change / Eosinophils, % - % Change / Hematocrit % Change / Hemoglobin % Change / Lymphocytes (absolute) % Change / Lymphocytes, % - % Change / MCH % Change / MCHC % Change / MCV % Change / Monocytes (absolute) % Change / Monocytes, % - % Change / Neutrophils (absolute) % Change / Neutrophils, % - % Change / Platelets % Change / RBC % Change / RDW % Change / WBC % Change: Before to After
Experimental: Study 1 design. For study 1 the subjects reported to the laboratory in the morning following an overnight fast. Before ingestion of one of the supplemental treatments, a flexible sterile polyethylene catheter was inserted into a forearm vein using sterile procedures and a pre-ingestion blood sample was drawn. Subsequent blood samples were taken at 0, 2, 5, 10, 15, 25, 35, 45, 60, 90, 120 and 180 min after ingestion of the treatment. Plasma was separated and samples were stored frozen at −70° C. for analysis of HMB concentration. In addition, a portion of the pre-ingestion and 180 minute blood samples were used for measurements (LabCorp, Kansas City, Mo.) of glucose, uric acid, blood urea nitrogen (BUN), creatinine, sodium, potassium, chloride, carbon dioxide, phosphorous, protein, albumin, globulin, albumin:globulin ratio, total bilirubin, direct bilirubin, alkaline phosphatase, lactate dehydrogenase, aspartate aminotransferase (AST), alanine aminotransferase (ALT), gamma-glutamyl transpeptidase (GGT), iron binding capacity (TIBC), unsaturated iron binding capacity (UIBC), iron, iron saturation, total cholesterol, triglycerides, high density lipoprotein (HDL), low density lipoprotein (LDL), and cholesterol ratio. A complete blood count (CBC) was also performed before and after the 180 min treatment period. Subjects also completed a brief questionnaire to report any physical symptoms (such as nausea, headache, etc) they may have experienced during the experiment.
The data were analyzed using a crossover design with Proc GLM in SAS. (45) For the timed sampling of plasma HMB a repeated measures polynomial model was used. The model included subject, order, and treatment main effects and time by treatment interaction where appropriate. For other parameters Proc GLM was also used with subject, order, and treatment main effects and the p values are reported for the treatment main effect. Statistical significance was determined for p<0.05 and a trend was determined for 0.05<p<0.10.

## CC(C)(O)CC(=O)[O-].CC(C)(O)CC(=O)[O-].[Ca+2] [CaHMB, calcium β-hydroxy-β-methylbutryate, reference compound]
After (180 min)
  Basophils (absolute): 0.04 ± 0.0 ×10^3/μL
  Basophils, %: 0.4 ± 0.2%
  Eosinophils (absolute): 0.1 ± 0.04 ×10^3/μL
  Eosinophils, %: 2.1 ± 0.6%
  Hematocrit: 38.7 ± 1.3%
  Hemoglobin: 13.4 ± 0.5 g/dL
  Lymphocytes (absolute): 2.1 ± 0.2 ×10^3/μL
  Lymphocytes, %: 34.0 ± 3.4%
  MCH: 31.3 ± 0.6 pg
  MCHC: 34.7 ± 0.2 g/dL
  MCV: 90.4 ± 1.5 fL
  Monocytes (absolute): 0.5 ± 0.1 ×10^3/μL
  Monocytes, %: 7.4 ± 0.7%
  Neutrophils (absolute): 3.8 ± 0.7 ×10^3/μL
  Neutrophils, %: 56.1 ± 3.8%
  Platelets: 202.9 ± 16^ ×10^3/μL
  RBC: 4.3 ± 0.2 ×10^6/µL
  RDW: 13.1 ± 0.2%
  WBC: 6.4 ± 0.7 ×10^3/μL
Before
  Basophils (absolute): 0.05 ± 0.0 ×10^3/μL
  Basophils, %: 0.5 ± 0.2%
  Eosinophils (absolute): 0.2 ± 0.04 ×10^3/μL
  Eosinophils, %: 2.5 ± 0.4%
  Hematocrit: 38.3 ± 1.1%
  Hemoglobin: 13.3 ± 0.4 g/dL
  Lymphocytes (absolute): 2.5 ± 0.1 ×10^3/μL
  Lymphocytes, %: 39.6 ± 2.8%
  MCH: 31.2 ± 0.6 pg
  MCHC: 34.7 ± 0.1 g/dL
  MCV: 90.0 ± 1.5 fL
  Monocytes (absolute): 0.5 ± 0.1 ×10^3/μL
  Monocytes, %: 7.1 ± 0.9%
  Neutrophils (absolute): 3.3 ± 0.4 ×10^3/μL
  Neutrophils, %: 50.3 ± 3.3%
  Platelets: 209.0 ± 14^ ×10^3/μL
  RBC: 4.3 ± 0.2 ×10^6/µL
  RDW: 13.1 ± 0.2%
  WBC: 6.4 ± 0.4 ×10^3/μL
  Basophils (absolute) % Change: −25.0%
  Basophils, % - % Change: −25.0%
  Eosinophils (absolute) % Change: −21.4%
  Eosinophils, % - % Change: −15.0%
  Hematocrit % Change: 1.2%
  Hemoglobin % Change: 1.2%
  Lymphocytes (absolute) % Change: −15.6%
  Lymphocytes, % - % Change: −14.2%
  MCH % Change: 0.3%
  MCHC % Change: 0.1%
  MCV % Change: 0.4%
  Monocytes (absolute) % Change: 8.3%
  Monocytes, % - % Change: 3.5%
  Neutrophils (absolute) % Change: 14.5%
  Neutrophils, % - % Change: 11.7%
  Platelets % Change: −2.9%
  RBC % Change: 1.0%
  RDW % Change: 0.1%
  WBC % Change: 0.3%

## CC(C)(O)CC(=O)O [HMB-Acid Gel Sublingual, 3-hydroxy-3-methylbutyric acid]
After (180 min)
  Basophils (absolute): 0.03 ± 0.02 ×10^3/μL
  Basophils, %: 0.3 ± 0.2%
  Eosinophils (absolute): 0.1 ± 0.02 ×10^3/μL
  Eosinophils, %: 1.8 ± 0.3%
  Hematocrit: 38.5 ± 1.7%
  Hemoglobin: 13.3 ± 0.6 g/dL
  Lymphocytes (absolute): 2.2 ± 0.2 ×10^3/μL
  Lymphocytes, %: 35.5 ± 2.1%
  MCH: 31.0 ± 0.5 pg
  MCHC: 34.5 ± 0.2 g/dL
  MCV: 89.9 ± 1.7 fL
  Monocytes (absolute): 0.5 ± 0.05 ×10^3/μL
  Monocytes, %: 7.1 ± 0.7%
  Neutrophils (absolute): 3.5 ± 0.3 ×10^3/μL
  Neutrophils, %: 55.4 ± 2.9%
  Platelets: 213.9 ± 19.1 ×10^3/μL
  RBC: 4.3 ± 0.2 ×10^6/µL
  RDW: 13.3 ± 0.2%
  WBC: 6.3 ± 0.4 ×10^3/μL
Before
  Basophils (absolute): 0.03 ± 0.02 ×10^3/μL
  Basophils, %: 0.3 ± 0.2%
  Eosinophils (absolute): 0.2 ± 0.03 ×10^3/μL
  Eosinophils, %: 2.4 ± 0.4%
  Hematocrit: 37.8 ± 1.6%
  Hemoglobin: 13.1 ± 0.6 g/dL
  Lymphocytes (absolute): 2.8 ± 0.2 ×10^3/μL
  Lymphocytes, %: 43.0 ± 1.4%
  MCH: 31.0 ± 0.5 pg
  MCHC: 34.7 ± 0.2 g/dL
  MCV: 89.6 ± 1.6 fL
  Monocytes (absolute): 0.5 ± 0.1 ×10^3/μL
  Monocytes, %: 7.0 ± 1.0%
  Neutrophils (absolute): 3.1 ± 0.3 ×10^3/μL
  Neutrophils, %: 47.4 ± 2.2%
  Platelets: 221.3 ± 20.8 ×10^3/μL
  RBC: 4.2 ± 0.2 ×10^6/µL
  RDW: 13.2 ± 0.2%
  WBC: 6.6 ± 0.4 ×10^3/μL
  Basophils (absolute) % Change: 0.0%
  Basophils, % - % Change: 0.0%
  Eosinophils (absolute) % Change: −28.6%
  Eosinophils, % - % Change: −26.3%
  Hematocrit % Change: 2.0%
  Hemoglobin % Change: 1.4%
  Lymphocytes (absolute) % Change: −22.1%
  Lymphocytes, % - % Change: −17.4%
  MCH % Change: 0.0%
  MCHC % Change: −0.5%
  MCV % Change: 0.3%
  Monocytes (absolute) % Change: 0.0%
  Monocytes, % - % Change: 1.8%
  Neutrophils (absolute) % Change: 11.6%
  Neutrophils, % - % Change: 16.9%
  Platelets % Change: −3.3%
  RBC % Change: 1.7%
  RDW % Change: 0.9%
  WBC % Change: −4.2%

## CC(C)(O)CC(=O)O [HMB-Acid Gel Swallow, 3-hydroxy-3-methylbutyric acid]
After (180 min)
  Basophils (absolute): 0.04 ± 0.02 ×10^3/μL
  Basophils, %: 0.4 ± 0.2%
  Eosinophils (absolute): 0.1 ± 0.02 ×10^3/μL
  Eosinophils, %: 2.4 ± 0.4%
  Hematocrit: 37.6 ± 1.5%
  Hemoglobin: 13.0 ± 0.5 g/dL
  Lymphocytes (absolute): 2.2 ± 0.1 ×10^3/μL
  Lymphocytes, %: 37.4 ± 1.9%
  MCH: 31.4 ± 0.8 pg
  MCHC: 34.6 ± 0.3 g/dL
  MCV: 90.0 ± 1.5 fL
  Monocytes (absolute): 0.5 ± 0.04 ×10^3/μL
  Monocytes, %: 7.0 ± 0.6%
  Neutrophils (absolute): 3.3 ± 0.2 ×10^3/μL
  Neutrophils, %: 52.9 ± 2.2%
  Platelets: 202.4 ± 25. ×10^3/μL
  RBC: 4.2 ± 0.2 ×10^6/µL
  RDW: 13.2 ± 0.3%
  WBC: 6.1 ± 0.3 ×10^3/μL
Before
  Basophils (absolute): 0.01 ± 0.01^a ×10^3/μL
  Basophils, %: 0.1 ± 0.1^a %
  Eosinophils (absolute): 0.2 ± 0.04 ×10^3/μL
  Eosinophils, %: 2.5 ± 0.3%
  Hematocrit: 37.6 ± 1.6%
  Hemoglobin: 13.1 ± 0.5 g/dL
  Lymphocytes (absolute): 3.1 ± 0.3 ×10^3/μL
  Lymphocytes, %: 43.8 ± 2.8%
  MCH: 31.2 ± 0.7 pg
  MCHC: 34.7 ± 0.3 g/dL
  MCV: 90.1 ± 1.3 fL
  Monocytes (absolute): 0.5 ± 0.1 ×10^3/μL
  Monocytes, %: 7.6 ± 0.7%
  Neutrophils (absolute): 3.0 ± 0.2 ×10^3/μL
  Neutrophils, %: 46.0 ± 2.8%
  Platelets: 195.0 ± 31.5 ×10^3/μL
  RBC: 4.2 ± 0.2 ×10^6/µL
  RDW: 13.2 ± 0.2%
  WBC: 6.7 ± 0.5 ×10^3/μL
  Basophils (absolute) % Change: 200.0%
  Basophils, % - % Change: 200.0%
  Eosinophils (absolute) % Change: −41.2%
  Eosinophils, % - % Change: −5.0%
  Hematocrit % Change: −0.1%
  Hemoglobin % Change: −0.4%
  Lymphocytes (absolute) % Change: −29.1%
  Lymphocytes, % - % Change: −14.6%
  MCH % Change: 0.7%
  MCHC % Change: −0.3%
  MCV % Change: −0.1%
  Monocytes (absolute) % Change: −7.7%
  Monocytes, % - % Change: −8.2%
  Neutrophils (absolute) % Change: 10.9%
  Neutrophils, % - % Change: 14.9%
  Platelets % Change: 3.8%
  RBC % Change: 0.1%
  RDW % Change: 0.4%
  WBC % Change: −10.2%
p<0.04
  decrease in absolute lymphocyte numbers over the measurement period: significantly greater decrease
